For experiment [1], the target named is purified recombinant human GAC (GLS1) (Homo sapiens (Human), UniProt O94925). As to the kind of experiment: GLS1 Enzymatic Activity Assay (dual-coupled enzymatic assay, resorufin/Amplex UltraRed readout).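 Further: glutamate from GAC coupled via glutamate oxidase and peroxidase to resorufin, read as fluorescence (ex 530, em 590 nm) kinetically or at 20 min, four-parameter logistic IC50 fit.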 The experiment is classed as biochemical.
For another experiment, the system named is A549 cells. Description: Proliferation Assay (A549 viability, Cell Titer Fluor, 72 hours). Format: cell-based. Conditions: Homo sapiens, A549, 72 h. A digest of the protocol: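 Cell Titer Fluor fluorescence after 72 h compound treatment (0.5% DMSO, 37 °C, 5% CO2) of A549 cells plated 24 h earlier at 1000/well. Four-parameter logistic fitting gave IC50.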

Where “and” joins values, the source holds several entries; their conditions need not be identical. Identical values can stand only once.

Sequence of purified recombinant human GAC (GLS1) (O94925 other isoform, or with tags, fused parts or gaps): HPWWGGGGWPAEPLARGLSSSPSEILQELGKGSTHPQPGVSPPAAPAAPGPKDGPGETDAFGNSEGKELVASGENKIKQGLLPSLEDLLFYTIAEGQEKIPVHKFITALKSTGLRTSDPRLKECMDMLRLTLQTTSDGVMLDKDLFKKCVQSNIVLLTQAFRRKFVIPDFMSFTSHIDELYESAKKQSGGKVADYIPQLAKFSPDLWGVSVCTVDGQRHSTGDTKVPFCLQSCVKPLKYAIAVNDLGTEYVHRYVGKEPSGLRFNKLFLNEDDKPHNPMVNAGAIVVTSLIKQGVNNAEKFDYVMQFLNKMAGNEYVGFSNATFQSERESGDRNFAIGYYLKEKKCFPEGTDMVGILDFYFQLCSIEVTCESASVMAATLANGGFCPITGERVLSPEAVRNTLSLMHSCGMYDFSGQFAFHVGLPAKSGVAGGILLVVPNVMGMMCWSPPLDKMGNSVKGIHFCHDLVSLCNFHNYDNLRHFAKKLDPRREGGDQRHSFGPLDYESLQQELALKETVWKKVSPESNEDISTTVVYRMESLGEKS

Regarding `CC(C)CNC(=O)c1nnc(CCCCc2ccc(NC(=O)Cc3cccc(OC(F)(F)F)c3)nn2)s1` [Example 31, N-(2-methylpropyl)-5-[4-(6-{2-[3-(trifluoromethoxy)phenyl]acetamido}pyridazin-3-yl)butyl]-1,3,4-thiadiazole-2-carboxamide], the IC50 – broadly, the concentration needed to halve the response being measured – in experiment [1] is below 100 nM. Also, in the experiment on A549 cells, the EC50 (as a rule, the concentration needed to bring the measured effect to its halfway point) was below 100 nM.
Take `O=C(Cc1cccc(OC(F)(F)F)c1)Nc1ccc(CCCCc2nnc(C(=O)NCc3ccccn3)s2)nn1` [Example 32, N-(pyridin-2-ylmethyl)-5-[4-(6-{2-[3-(trifluoromethoxy)phenyl]acetamido}pyridazin-3-yl)butyl]-1,3,4-thiadiazole-2-carboxamide]: in experiment [1], the half-maximal inhibitory concentration (IC50) was below 100 nM. Also, in the experiment on A549 cells, the EC50 is below 100 nM.
With `O=C(Cc1cccc(OC(F)(F)F)c1)Nc1ccc(CCCCc2nnc(C(=O)NCC3COC3)s2)nn1` [Example 33, N-(oxetan-3-ylmethyl)-5-[4-(6-{2-[3-(trifluoromethoxy)phenyl]acetamido}pyridazin-3-yl)butyl]-1,3,4-thiadiazole-2-carboxamide], the IC50 in experiment [1] is below 100 nM. The EC50 in the experiment with A549 cells was below 100 nM.
For the compound `CC(C)(O)CNC(=O)c1nnc(CCCCc2ccc(NC(=O)Cc3cccc(OC(F)(F)F)c3)nn2)s1` [Example 34, N-(2-hydroxy-2-methylpropyl)-5-[4-(6-{2-[3-(trifluoromethoxy)phenyl]acetamido}pyridazin-3-yl)butyl]-1,3,4-thiadiazole-2-carboxamide], in experiment [1], the IC50 is < 100 nM and 100 to 500 nM. In the experiment on A549 cells, this compound gave an EC50 of 100 to 500 nM.
For the compound `O=C(Cc1cccc(OC(F)(F)F)c1)Nc1ccc(CCCCc2nnc(C(=O)NCc3ccccc3)s2)nn1` [Example 36, N-benzyl-5-[4-(6-{2-[3-(trifluoromethoxy)phenyl]acetamido}pyridazin-3-yl)butyl]-1,3,4-thiadiazole-2-carboxamide], the IC50 in experiment [1] was below 100 nM. In addition, the EC50 in the experiment with A549 cells was below 100 nM.
For `O=C(Cc1cccc(OC(F)(F)F)c1)Nc1ccc(CCCCc2nnc(C(=O)NCCO)s2)nn1` [Example 37, N-(2-hydroxyethyl)-5-[4-(6-{2-[3-(trifluoromethoxy)phenyl]acetamido}pyridazin-3-yl)butyl]-1,3,4-thiadiazole-2-carboxamide], the IC50 in experiment [1] was below 100 nM. The EC50 in the experiment with A549 cells was below 100 nM.
As to `O=C(NCc1ccccc1)c1cn(CCCCc2nnc(C(=O)NCCO)s2)nn1` [Example 41, 5-{4-[4-(benzylcarbamoyl)-1H-1,2,3-triazol-1-yl]butyl}-N-(2-hydroxyethyl)-1,3,4-thiadiazole-2-carboxamide], the IC50 in experiment [1] fell in the range of 500 to 5000 nM. Moreover, in the experiment with A549 cells, the concentration giving a half-maximal response (EC50) is 500 to 5000 nM.
In the case of `O=C(NCc1cccc(OC(F)(F)F)c1)c1cn(CCCCc2nnc(C(=O)NCCO)s2)nn1` [Example 45, N-(2-hydroxyethyl)-5-{4-[4-({[3-(trifluoromethoxy)phenyl]methyl}carbamoyl)-1H-1,2,3-triazol-1-yl]butyl}-1,3,4-thiadiazole-2-carboxamide], the 50% inhibitory concentration (IC50) in experiment [1] was in the range of 100 to 500 nM. This compound also had an EC50 in the experiment on A549 cells of 500 to 5000 nM.
For `O=C(NCc1cccc(OC(F)(F)F)c1)c1cn(CCCCc2nnc(C(=O)NCc3cccc(OC(F)(F)F)c3)s2)nn1` [Example 46, N-{[3-(trifluoromethoxy)phenyl]methyl}-5-{4-[4-({[3-(trifluoromethoxy)phenyl]methyl}carbamoyl)-1H-1,2,3-triazol-1-yl]butyl}-1,3,4-thiadiazole-2-carboxamide], in that order: below 100 nM and below 100 nM.
For `O=C(NCc1cccc(OC(F)(F)F)c1)c1cn(CCCCc2nnc(C(=O)NCc3ccccn3)s2)nn1` [Example 47, N-(pyridin-2-ylmethyl)-5-{4-[4-({[3-(trifluoromethoxy)phenyl]methyl}carbamoyl)-1H-1,2,3-triazol-1-yl]butyl}-1,3,4-thiadiazole-2-carboxamide], in that order: below 100 nM and 100 to 500 nM.
For `CC(C)(O)CNC(=O)c1nnc(CCCCn2cc(C(=O)NCc3cccc(OC(F)(F)F)c3)nn2)s1` [Example 48, N-(2-hydroxy-2-methylpropyl)-5-{4-[4-({[3-(trifluoromethoxy)phenyl]methyl}carbamoyl)-1H-1,2,3-triazol-1-yl]butyl}-1,3,4-thiadiazole-2-carboxamide], in that order: 500 to 5000 nM and 500 to 5000 nM.
On to `O=C(NCc1cccc(OC(F)(F)F)c1)c1cn(CCCCc2nnc(C(=O)NCCN3CCCC3)s2)nn1` [Example 49, N-[2-(pyrrolidin-1-yl)ethyl]-5-{4-[4-({[3-(trifluoromethoxy)phenyl]methyl}carbamoyl)-1H-1,2,3-triazol-1-yl]butyl}-1,3,4-thiadiazole-2-carboxamide], for which the IC50 in experiment [1] was 500 to 5000 nM. Moreover, the EC50 in the experiment on A549 cells was above 5000 nM.
For `O=C(NCc1cccc(OC(F)(F)F)c1)c1cn(CCCCc2nnc(C(=O)NCC3COC3)s2)nn1` [Example 50, N-(oxetan-3-ylmethyl)-5-{4-[4-({[3-(trifluoromethoxy)phenyl]methyl}carbamoyl)-1H-1,2,3-triazol-1-yl]butyl}-1,3,4-thiadiazole-2-carboxamide], in that order: 100 to 500 nM and 500 to 5000 nM.
Turning to `O=C(NCc1cccc(OC(F)(F)F)c1)c1cn(CCCCc2nnc(C(=O)NC3COC3)s2)nn1` [Example 51, N-(oxetan-3-yl)-5-{4-[4-({[3-(trifluoromethoxy)phenyl]methyl}carbamoyl)-1H-1,2,3-triazol-1-yl]butyl}-1,3,4-thiadiazole-2-carboxamide], the IC50 in experiment [1] is 100 to 500 nM. The compound further displayed an EC50 in the experiment on A549 cells of 500 to 5000 nM.
The like results for `COCCNC(=O)c1nnc(CCCCn2cc(C(=O)NCc3ccccc3)nn2)s1` [Example 52, 5-{4-[4-(benzylcarbamoyl)-1H-1,2,3-triazol-1-yl]butyl}-N-(2-methoxyethyl)-1,3,4-thiadiazole-2-carboxamide] were, in that order, 500 to 5000 nM and above 5000 nM.
For `CCOC(=O)NCc1cn(CCCCn2cc(C(=O)NCc3cccc(OC(F)(F)F)c3)nn2)nn1` [Example 54, ethyl N-[(1-{4-[4-({[3-(trifluoromethoxy)phenyl]methyl}carbamoyl)-1H-1,2,3-triazol-1-yl]butyl}-1H-1,2,3-triazol-4-yl)methyl] carbamate], in that order: 100 to 500 nM and 100 to 500 nM.
As for `CC(C)CC(=O)NCc1cn(CCCCn2cc(C(=O)NCc3cccc(OC(F)(F)F)c3)nn2)nn1` [Example 55, l-(4-{4-[(3-methylbutanamido)methyl]-1H-1,2,3-triazol-1-yl}butyl)-N-{[3-(trifluoromethoxy)phenyl]methyl}-1H-1,2,3-triazole-4-carboxamide], the IC50 in experiment [1] is 100 to 500 nM. For the same compound, the EC50 in the experiment with A549 cells is 500 to 5000 nM.
The like results for `CC(C)COC(=O)NCc1cn(CCCCn2cc(C(=O)NCc3cccc(OC(F)(F)F)c3)nn2)nn1` [Example 56, 2-methylpropyl N-[(1-{4-[4-({[3-(trifluoromethoxy)phenyl]methyl}carbamoyl)-1H-1,2,3-triazol-1-yl]butyl}-1H-1,2,3-triazol-4-yl)methyl]carbamate] were, in that order, below 100 nM and below 100 nM.
For the compound `O=C(NCc1cccc(OC(F)(F)F)c1)c1cn(CCCCc2nnc(C(=O)NCC3CC3)s2)nn1` [Example 59, N-(cyclopropylmethyl)-5-{4-[4-({[3-(trifluoromethoxy)phenyl]methyl}carbamoyl)-1H-1,2,3-triazol-1-yl]butyl}-1,3,4-thiadiazole-2-carboxamide], the IC50 in experiment [1] was 100 to 500 nM. This compound also returned an EC50 in the experiment with A549 cells of 500 to 5000 nM.

The values are drawn from US10344025B2, “GLS1 inhibitors for treating disease” (Board of Regents, The University of Texas System, priority 2014, dated 2019).
